Laboratory results published in ChEMBL document CHEMBL1201862, “PubChem BioAssay data set” (2004).
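Each compound was tested at five concentrations against cells in 96-well plates for 48 hours. Abbreviation: GI50, concentration required for 50% inhibition of growth.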 Active and inactive are the calls of the source. No stated cut-off is given here; in the data, active = GI50 up to about 1.1 µM and inactive = higher.

What was measured:
Experiment in all cases: NCI tumour cell line growth inhibition, 48 h
A498 = test system: A498
BT-549 = test system: BT-549
EKVX = test system: EKVX
HOP-62 = test system: HOP-62
HOP-92 = test system: HOP-92
Hs-578T = test system: Hs-578T
IGROV-1 = test system: IGROV-1
MCF7 = test system: MCF7
MOLT-4 = test system: MOLT-4
NCI/ADR-RES = test system: NCI/ADR-RES
RPMI-8226 = test system: RPMI-8226
SF-268 = test system: SF-268
SK-MEL-28 = test system: SK-MEL-28
SW-620 = test system: SW-620
T47D = test system: T47D
TK-10 = test system: TK-10
U-251 = test system: U-251
UACC-257 = test system: UACC-257
UACC-62 = test system: UACC-62
RXF 393 = test system: RXF 393

| SMILES | GI50 (A498) | GI50 (BT-549) | GI50 (EKVX) | GI50 (HOP-62) | GI50 (HOP-92) | GI50 (Hs-578T) | GI50 (IGROV-1) | GI50 (MCF7) | GI50 (MOLT-4) | GI50 (NCI/ADR-RES) | GI50 (RPMI-8226) | GI50 (SF-268) | GI50 (SK-MEL-28) | GI50 (SW-620) | GI50 (T47D) | GI50 (TK-10) | GI50 (U-251) | GI50 (UACC-257) | GI50 (UACC-62) | GI50 (RXF 393) |
| --- | --- | --- | --- | --- | --- | --- | --- | --- | --- | --- | --- | --- | --- | --- | --- | --- | --- | --- | --- | --- |
| CCOC(=O)c1nc2ccccc2nc1Oc1cc(OC)c(OC)c(OC)c1 | > 100 µM (inactive) | > 100 µM (inactive) | > 100 µM (inactive) | 31.4 µM (inactive) | 47.6 µM (inactive) | 27.1 µM (inactive) | > 100 µM (inactive) | > 100 µM (inactive) | > 100 µM (inactive) | > 100 µM (inactive) | > 100 µM (inactive) | > 100 µM (inactive) | > 100 µM (inactive) | > 100 µM (inactive) | > 100 µM (inactive) | 51.2 µM (inactive) | 32.6 µM (inactive) | > 100 µM (inactive) | > 100 µM (inactive) |  |
| CC(=O)N1N=C(c2c(O)ccc3ccccc23)CC1C(=O)c1ccco1 (stereo not given) | 41.5 µM (inactive) | 18.4 µM (inactive) |  | 29.8 µM (inactive) | 52.7 µM (inactive) | 34.5 µM (inactive) | 27.1 µM (inactive) | 14.5 µM (inactive) | 13.2 µM (inactive) | 28.2 µM (inactive) | 14 µM (inactive) | 31.1 µM (inactive) | 30.9 µM (inactive) | 33.7 µM (inactive) | 39.8 µM (inactive) | 60.3 µM (inactive) | 34.3 µM (inactive) | 31.6 µM (inactive) | 16.4 µM (inactive) | 25.1 µM (inactive) |
| CCCNC(=O)CCC(C)[C@H]1CCC2C3C(C[C@H](OC(C)=O)[C@@]21C)[C@@]1(C)CCC2(C[C@H]1C[C@H]3OC(C)=O)OOC1(CCC(C)CC1)OO2 (stereo not given in full) | 22.2 µM (inactive) | 27.1 µM (inactive) | 13.6 µM (inactive) | 1.72 µM (inactive) | 0.0447 µM (active) | 31 µM (inactive) | 1.87 µM (inactive) | 34.7 µM (inactive) | 37.7 µM (inactive) | 16.6 µM (inactive) | 3.65 µM (inactive) | 20 µM (inactive) | 89.7 µM (inactive) |  | 15.9 µM (inactive) | 28.7 µM (inactive) | 14.8 µM (inactive) | 23.2 µM (inactive) | 43.5 µM (inactive) | 50 µM (inactive) |
| COc1ccc(C2SCC(=O)N2c2ccc(-n3c(-c4ccccc4)nc4ccccc4c3=O)cc2)cc1 (stereo not given) | > 100 µM (inactive) | > 100 µM (inactive) | > 100 µM (inactive) | > 100 µM (inactive) | 46.7 µM (inactive) | > 10 µM (inactive) | > 100 µM (inactive) | 98.4 µM (inactive) | 24.6 µM (inactive) | 8.89 µM (inactive) | > 100 µM (inactive) | > 100 µM (inactive) | > 100 µM (inactive) | > 100 µM (inactive) | 21.6 µM (inactive) | > 100 µM (inactive) | > 100 µM (inactive) | > 100 µM (inactive) | 17.8 µM (inactive) |  |
| [N-]=[N+]=NC1=C(N=[N+]=[N-])c2cccc3cccc(c23)C1=O | > 100 µM (inactive) | > 100 µM (inactive) | > 100 µM (inactive) | 49.7 µM (inactive) | > 100 µM (inactive) | > 100 µM (inactive) | 68.2 µM (inactive) | > 100 µM (inactive) | 39.8 µM (inactive) | > 100 µM (inactive) | > 100 µM (inactive) | > 100 µM (inactive) |  | 57.7 µM (inactive) | > 100 µM (inactive) | > 100 µM (inactive) | 97.7 µM (inactive) | > 100 µM (inactive) | > 100 µM (inactive) | 65.6 µM (inactive) |
| CCOP(=O)(OCC)/C(C#N)=C/c1c[nH]c2ccccc12 | > 100 µM (inactive) | 57.9 µM (inactive) | > 100 µM (inactive) | > 100 µM (inactive) | > 100 µM (inactive) | > 100 µM (inactive) | > 100 µM (inactive) | > 100 µM (inactive) |  | 53 µM (inactive) | 90.4 µM (inactive) | > 100 µM (inactive) | > 100 µM (inactive) | > 100 µM (inactive) | > 100 µM (inactive) | > 100 µM (inactive) | > 100 µM (inactive) | > 100 µM (inactive) | > 100 µM (inactive) | > 100 µM (inactive) |
| O=[N+]([O-])c1ccc2nc3ccc([N+](=O)[O-])cn3c2c1 | 20.7 µM (inactive) | > 100 µM (inactive) | 29.4 µM (inactive) | 17.6 µM (inactive) | > 100 µM (inactive) | 27.4 µM (inactive) | 97.1 µM (inactive) | 63.7 µM (inactive) | > 100 µM (inactive) | > 100 µM (inactive) |  | 30.5 µM (inactive) | > 100 µM (inactive) | > 100 µM (inactive) | > 100 µM (inactive) | 98.6 µM (inactive) | 36 µM (inactive) | > 100 µM (inactive) | 86.3 µM (inactive) | 48.9 µM (inactive) |
| COc1cccc(/N=N/N2CCCC2)c1 | > 100 µM (inactive) | > 100 µM (inactive) | > 100 µM (inactive) | > 100 µM (inactive) | > 100 µM (inactive) | > 100 µM (inactive) | > 100 µM (inactive) | > 100 µM (inactive) | > 100 µM (inactive) | > 100 µM (inactive) | 53.7 µM (inactive) | > 100 µM (inactive) |  | > 100 µM (inactive) | > 100 µM (inactive) | > 100 µM (inactive) | > 100 µM (inactive) | > 100 µM (inactive) | 39.5 µM (inactive) | > 100 µM (inactive) |
| COc1ccc(C(=O)/C=C/c2ccc(OCC#N)cc2)cc1 | 30.6 µM (inactive) | 17.5 µM (inactive) | 74.5 µM (inactive) | 53.1 µM (inactive) | 29 µM (inactive) | 27.7 µM (inactive) | > 10 µM (inactive) | 15.8 µM (inactive) | 23.3 µM (inactive) | 20.9 µM (inactive) |  | 34.1 µM (inactive) | 17.1 µM (inactive) | 17.3 µM (inactive) | 14.9 µM (inactive) | 38.3 µM (inactive) | 17.4 µM (inactive) | 38.9 µM (inactive) | > 10 µM (inactive) | 16.3 µM (inactive) |
| Cc1[nH]c2ccccc2c1/C=N/c1ccc(Oc2ccccc2)cc1 | 18.3 µM (inactive) | 14.8 µM (inactive) | 14.1 µM (inactive) |  | 12.7 µM (inactive) | 22.6 µM (inactive) | 13.4 µM (inactive) | 19.1 µM (inactive) | 13.8 µM (inactive) | 19.1 µM (inactive) | 10.4 µM (inactive) | 14.6 µM (inactive) | 18.8 µM (inactive) | 18 µM (inactive) | 18.5 µM (inactive) | 16.4 µM (inactive) | 15.3 µM (inactive) | 17.4 µM (inactive) | 17.9 µM (inactive) | 16.8 µM (inactive) |
| CC1=NN(C(=O)c2ccncc2)C(=O)C1 | > 100 µM (inactive) | > 100 µM (inactive) | > 100 µM (inactive) | > 100 µM (inactive) | > 100 µM (inactive) | > 100 µM (inactive) | > 100 µM (inactive) | > 100 µM (inactive) | 89.9 µM (inactive) | > 100 µM (inactive) |  | > 100 µM (inactive) | > 100 µM (inactive) | > 100 µM (inactive) | > 100 µM (inactive) | > 100 µM (inactive) | > 100 µM (inactive) | > 100 µM (inactive) | > 100 µM (inactive) | > 100 µM (inactive) |
| O=S(=O)(O)c1ccc(-c2nnc(-c3ccccn3)nc2-c2ccc(S(=O)(=O)O)o2)o1 | > 100 µM (inactive) | > 100 µM (inactive) | > 100 µM (inactive) | > 100 µM (inactive) | > 100 µM (inactive) | > 100 µM (inactive) | > 100 µM (inactive) | > 100 µM (inactive) | > 100 µM (inactive) | > 100 µM (inactive) | > 100 µM (inactive) | > 100 µM (inactive) | > 100 µM (inactive) | > 100 µM (inactive) | > 100 µM (inactive) |  | > 100 µM (inactive) |  | > 100 µM (inactive) | > 100 µM (inactive) |
| CCOC(=O)C(C)(C)Oc1ccc(Cl)cc1 [CLOFIBRATE] | 297 µM (inactive) | > 1000 µM (inactive) | 201 µM (inactive) | > 1000 µM (inactive) | 177 µM (inactive) | 208 µM (inactive) | 461 µM (inactive) | 325 µM (inactive) | 161 µM (inactive) | 285 µM (inactive) |  | 650 µM (inactive) | 489 µM (inactive) | 614 µM (inactive) | 202 µM (inactive) | > 1000 µM (inactive) | > 1000 µM (inactive) | 177 µM (inactive) | 514 µM (inactive) | 160 µM (inactive) |
| c1ccc(-c2nn(-c3ccccc3)[n+](-c3ccccc3)n2)cc1 [TETRAZOLIUM RED] | > 74.6 µM (inactive) | > 50.5 µM (inactive) | 2.4 µM (inactive) | 19.5 µM (inactive) | 24.1 µM (inactive) | 31.6 µM (inactive) | 3.1 µM (inactive) | 2.88 µM (inactive) | 19.1 µM (inactive) | > 100 µM (inactive) |  | 14.5 µM (inactive) | 19.4 µM (inactive) | 16.1 µM (inactive) | > 100 µM (inactive) | 43 µM (inactive) | 8.97 µM (inactive) | 2.85 µM (inactive) | 13.8 µM (inactive) | 11.6 µM (inactive) |
